Assay results from USRE46630E1, “Substituted 4-pyridones and their use as inhibitors of neutrophil elastase activity” (Boehringer Ingelheim International GmbH, priority 2012, dated 2017).

What follows are molecules tested against T1, Human neutrophil elastase (Homo sapiens, UniProt P08246) (assay: Human Neutrophil Elastase Assay). Details: Neutrophil Elastase assay; substrate MeOSuc-Ala-Ala-Pro-Val-AMC 250 μM; 15 min preincubation, 60 min incubation at room temperature; pH 7.5.
T1 construct: purchased Calbiochem 324681
T1 sequence (P08246 30-267): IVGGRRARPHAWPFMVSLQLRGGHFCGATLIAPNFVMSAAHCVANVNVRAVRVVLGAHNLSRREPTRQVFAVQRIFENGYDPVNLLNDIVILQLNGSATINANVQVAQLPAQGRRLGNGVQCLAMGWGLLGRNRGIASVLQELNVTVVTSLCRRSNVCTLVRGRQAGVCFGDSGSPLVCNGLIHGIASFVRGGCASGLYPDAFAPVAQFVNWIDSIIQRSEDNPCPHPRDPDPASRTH
Format: biochemical
Experimental: Human Neutrophil Elastase Assay
All other materials were of the highest grade commercially available.
The following buffers were used: Compound buffer: 100 mM Tris, 500 mM NaCl, adjusted to pH 7.5; Assay buffer: 100 mM Tris, 500 mM NaCl, adjusted to pH 7.5, containing 0.01% BSA.
Assay conditions: Test compounds were prediluted in DMSO and subsequently in compound buffer (5% DMSO final). […] After inactivation of the enzyme, fluorescence intensities were measured at 380 nm excitation and 460 nm emission wavelengths.
Each plate contains wells with a high value control (DMSO+enzyme+substrate) and wells with a low value control (DMSO+inactivated enzyme+substrate). […] Means of low values were taken as 0%, means of high values as 100%.

IC50 [nM] | SMILES
94 | Cc1c(-c2ccnc(C(F)(F)F)c2)c(=O)c(C(=O)NC(C)(C)C#N)cn1C(C)c1ccc(C#N)cc1 (stereo not shown) [Example 9.46]
10.9 | Cc1c(-c2ccnc(C(F)(F)F)c2)c(=O)c(C(=O)NCC2CC2)cn1C(C)c1ccc(C#N)cc1 (stereo not shown) [Example 9.20]
16.3 | Cc1c(-c2ccnc(C(F)(F)F)c2)c(=O)c(C(=O)NCC2CC3CCC2O3)cn1C(C)c1ccc(C#N)cc1 (stereo not shown) [Example 9.30]
6 | C=CCNC(=O)c1cn(C(C)c2ccc(C#N)cc2)c(C)c(-c2ccnc(C(F)(F)F)c2)c1=O (stereo not shown) [Example 9.51]
12.1 | Cc1c(-c2ccnc(C(F)(F)F)c2)c(=O)c(C(=O)NCC2CCCO2)cn1C(C)c1ccc(C#N)cc1 (stereo not shown) [Example 9.26]
17.3 | Cc1c(-c2ccnc(C(F)(F)F)c2)c(=O)c(C(=O)NCC2CC(O)C2)cn1C(C)c1ccc(C#N)cc1 (stereo not shown) [Example 9.48]
5.7 | Cc1c(-c2ccnc(C(F)(F)F)c2)c(=O)c(C(=O)NCC2COC2)cn1C(C)c1ccc(C#N)cc1 (stereo not shown) [Example 9.15]

Continued, molecule first:

SMILES | IC50 [nM]
Cc1c(-c2cccc(C(F)(F)F)c2)c(=O)c(C(=O)NCCCS(C)(=O)=O)cn1C(C)c1ccc(C#N)cc1 (stereo not shown) [Example 7.3] | 1.3
Cc1c(-c2cccc(C(F)(F)F)c2)c(=O)c(C(=O)NCC2CCN(C(=O)C[N+](C)(C)C)CC2)cn1Cc1ccc(C#N)cc1 [Example 12.4, {2-[4-({[1-(4-Cyano-benzyl)-6-methyl-4-oxo-5-(3-trifluoromethyl-phenyl)-1,4-dihydro-pyridine-3-carbonyl]-amino}-methyl)-piperidin-1-yl]-2-oxo-ethyl}-trimethyl-ammonium chloride] | 14.4
Cc1c(-c2cccc(C(F)F)c2)c(=O)c(C(=O)NCc2ccc(S(C)(=O)=O)cc2)cn1C(C)c1ccc(C#N)cc1 (single isomer, unassigned) [Example 11B] | 19.5
CCNC(=O)c1cn(C(C)c2ccc(C#N)cc2)c(C)c(-c2cccc(C(F)F)c2)c1=O (stereo not shown) [Example 8.21] | 3
CNC(=O)c1cn(Cc2ccc(F)cc2)c(C)c(-c2cccc(C(F)(F)F)c2)c1=O [Example 3.3] | 51
COC(=O)C(C)NC(=O)c1cn(C(C)c2ccc(C#N)cc2)c(C)c(-c2ccnc(C(F)(F)F)c2)c1=O (stereo not shown) [Example 9.33] | 23.1
Cc1c(-c2cccc(C(F)(F)F)c2)c(=O)c(C(=O)NC2CCOCC2)cn1C(C)c1ccc(C#N)cn1 (stereo not shown) [Example 47.10] | 19.2
Cc1c(-c2cccc(C(F)F)c2)c(=O)c(C(=O)NCc2ccc(S(C)(=O)=O)cc2)cn1Cc1ccc(C#N)c(F)c1 [Example 39, 1-(4-Cyano-3-fluoro-benzyl)-5-(3-difluoromethyl-phenyl)-6-methyl-4-oxo-1,4-dihydro-pyridine-3-carboxylic acid 4-methanesulfonyl-benzylamide] | < 1
Cc1c(-c2cccc(C(F)(F)F)c2)c(=O)c(C(=O)NCC2CCN(C)CC2)cn1Cc1ccc(C#N)cc1 [Example 1.2] | 48.3
CNC(=O)c1cn(Cc2ccc(C#N)cc2F)c(C)c(-c2ccnc(C(F)(F)F)c2)c1=O [Example 42, 1-(4-Cyano-2-fluoro-benzyl)-2-methyl-4-oxo-2′-trifluoromethyl-1,4-dihydro-[3,4′]bipyridinyl-5-carboxylic acid methylamide] | 46
Cc1c(-c2cccc(C(F)(F)F)c2)c(=O)c(C(=O)NCc2ccc(S(C)(=O)=O)c[n+]2[O-])cn1Cc1ccc(C#N)cc1 [Example 14, Pyridin-N-oxide of example 4.1] | < 1
Cc1c(-c2cccc(C(F)F)c2)c(=O)c(C(=O)NCc2cnn(C)c2)cn1C(C)c1ccc(C#N)cc1 (stereo not shown) [Example 8.14] | 3.6
Cc1c(-c2cncc(C(F)(F)F)c2)c(=O)c(C(=O)NCc2ccc(S(C)(=O)=O)cc2)cn1Cc1ccc(C#N)cc1 [Example 6.13] | 2.5
Cc1c(-c2cccc(C(F)F)c2)c(=O)c(C(=O)NC2CCN(C)C2=O)cn1C(C)c1ccc(C#N)cc1 (stereo not shown) [Example 8.10] | 1.6
Cc1c(-c2cccc(C(F)(F)F)c2)c(=O)c(C(=O)NCCOCCOCCO)cn1Cc1ccc(C#N)cc1 [Example 1.25] | 10.9
